The subject of data set [1] is Healthy human patients who experience non-specific headaches. Kind of data set: Headache rated on 10-point scale, aspirin alone, Example 5. Format: in vivo. To be noted: 30 minutes. The method, then: (§1) Healthy human patients who experience non-specific headaches were recruited for this study. […] Each patient was asked to rate his or her headache on the 10-point scale (see FIG. 3). The patient then swallowed 891 mg of aspirin (11 tablets of 81 mg each) without chewing. Each patient was asked to rate his or headache again on the 10-point scale 30-minutes later. […] The patient then chewed 891 mg of aspirin (11 tablets of 81 mg each) and rubbed the aspirin in their oral mucosa, lips, gums and mouth and was asked to be careful not to swallow any of the aspirin, but to wash out their mouth afterwards with a sip of soda and spitting out such that no aspirin was swallowed. Each patient was asked to rate his or headache again on the 10-point scale 30-minutes later. Not until at least two days later did Period III start. […] The patient then chewed 891 mg of aspirin (11 tablets of 81 mg each) and rubbed the aspirin in their oral mucosa, lips, gums and mouth for about 10 seconds or until half was dissolved, then to take a sip of soda to wash the rest, but this time to swallow the soda and aspirin such that half was swallowed. Each patient was asked to rate his or headache again on the 10-point scale 30-minutes later.

For data set [2] the test system is unchanged. Kind of data set: Headache rated on 10-point scale, aspirin with acetaminophen and caffeine, Example 4. It is filed as in vivo. To be noted: 30 minutes. The method, then:
as §1, with “486” for “891”, “(6” for “(11”, “chewing, immediately followed by swallowing a combination of pill 1000 mg acetaminophen and 130 mg caffeine.” for “chewing.”, “swallowed. This was immediately followed by the patient swallowing a combination pill of 1000 mg acetaminophen and 130 mg caffeine.” for “swallowed.”

The next data set deals with Healthy human patients. Kind of data set: Niacin flush rated on the Global Flush Severity Scale (GFSS), Example 1. It is filed as in vivo. The settings on record: then 500 mg niacin. The method, then: Healthy human patients were recruited for this study. […] Each patient was asked to rate his or her flush on the Global Flush Severity Scale (GFSS) (see FIG. 1 and Paolini et al. Int. J. Clin. Pract. 62(6):896-904 (2008)), when the flush completely resolved. The Global Flushing Severity Score measures, overall, in the previous 24 hours, how each patient rates the flushing symptoms, including redness, warmth, tingling, and itchiness of the skin. […] After the flush completely resolved, then each patient recorded his or her GFSS flush rating. Not until at least two days later did Period III start. At Period III, each patient was asked to not swallow the orally administered aspirin (81 mg) but to allow the aspirin to be absorbed through the oral mucosa. The aspirin was in powdered form and the remaining aspirin in the mouth was washed out with water. […] Still, the flush was rated (GFSS) after it was resolved. […] The flush was then rated (GFSS) after it completely resolved.

For data set [3] the following is noted: cited from earlier work.
Where [4] appears, read: Period II: 81 mg aspirin swallowed.
The mark [5] stands for this setting: Period IV: 81 mg aspirin half mucosally absorbed and half swallowed.

Molecules are shown by their SMILES.

In the case of `CC(=O)Oc1ccccc1C(=O)O` [aspirin, acetylsalicylic acid], the decrease in headache in data set [1] (Period I: 891 mg aspirin swallowed) is 53%; in data set [1] (Period II: 891 mg aspirin chewed, oral mucosa only, none swallowed), 57%; in data set [1] (Period III: 891 mg aspirin half dissolved in mouth, half swallowed) it was 86%; in data set [2] (Period I: 486 mg aspirin swallowed + 1000 mg acetaminophen and 130 mg caffeine) it was 55%; in data set [2] (Period II: 486 mg aspirin chewed, oral mucosa only, none swallowed + 1000 mg acetaminophen and 130 mg caffeine), 62%; in data set [2] (Period III: 486 mg aspirin half dissolved in mouth, half swallowed + 1000 mg acetaminophen and 130 mg caffeine), 77%. Also, the “Global Flush Severity Scale (GFSS) average score” value with Healthy human patients (setting [4]) came out at 6.88; in the data set on Healthy human patients (Period III: 81 mg aspirin mucosally absorbed (not swallowed)) it was 5.06; in the data set on Healthy human patients (setting [5]), 3.94. The “reduction of flush severity from Period I” value with Healthy human patients (setting [4]) was determined as 18%; in the data set on Healthy human patients (Period III: 81 mg aspirin mucosally absorbed) it was 40%; in the data set with Healthy human patients (setting [5]), 53%. The “time to peak of aspirin serum levels following administration” value in data set [3] (GI-absorbed aspirin) was 15 to 20 min.
As for `O=C(O)c1ccccc1O` [salicylic acid], the “time within which most of the elimination from the serum occurs” value in data set [3] (salicylic acid, metabolite of aspirin) is ≤ 20 min.

These data come from patent publication US20200253990A1, “ASPIRIN FORMULATION FOR INCREASED EFFICACY” (Vitalis LLC, priority 2013, published 2020).
